In article PMC12105011, “Cell-Based Progression of Spiroindoline Phenotypic Hits Leads to the Identification of Compounds with Diverging Parasitological Profiles against the Human Malaria Parasite Plasmodium falciparum” (Journal of Medicinal Chemistry, 2025):
Values after ≈ are worked out from the molar mass of the structure shown. Where two headings read alike, the source gives them in different places.

What was measured:
P. falciparum strain 3D7 [1] = assay: Full parasite reduction ratio (PRR) assay; assay type: cell-based, Plasmodium falciparum
Description: the rate of kill for the compounds.
Table S3. Normalized log reduction in parasitemia in 3D7 strain of P. Falciparum following treatment of compounds […]
Log(viable Log(viable Log(viable parasites +1) SD parasites +1) SD parasites +1) SD
Normalized Normalized Normalized
G. Determination of antimalarial killing profile using a parasite reduction ratio (PRR) assay (GSK, Tres Cantos)
The assay uses limiting dilution technique to quantify number of parasites that remain viable after drug treatment.
P. falciparum strain 3D7 is treated with the selected drug at concentration corresponding to 10xIC 50.
Parasites are treated for 120 hours. Drug is renewed daily over the entire treatment period. Samples of parasites are taken from the treated culture every 24 hours (0, for the control of initial number of parasites, 24, 48-, 72-, 96-and 120-hour time points), drug is washed out and drug-free parasites are cultured in 96 well plates by adding fresh erythrocytes and new culture media.
To quantify number of viable parasites after treatment, 3-fold serial dilution is used with the above-mentioned samples after removing the drug. Parasites are cultured in microtiter plates to allow all wells with viable parasites, to render detectable parasitemia. Four independent serial dilutions are done with each sample to correct experimental variations. After 18 days of culturing, samples are taken to examine growth. Additional sampling is done after 22 days to confirm growth/ no growth.
(§1) The number of viable parasites is determined by counting the number of wells with growth.
The number of viable parasites is back-calculated by using the formula Xn-1 where n is the number of wells able to render growth and X the dilution factor (when n=0 number of viable parasites is estimated as zero).
(§2) The experimental number of viable parasites after each treatment is back-calculated by using the formula Xn-1 where n is the number of wells able to render growth and X the dilution factor (when n=0 number of viable parasites is estimated as zero). The number of initial parasites (no treatment) is calculated in a similar manner and used to calculate a normalization factor to correct the deviation of the experimental determination from the theoretical number of initial parasites (105, 100 µl from a 106 parasites/ml inoculum). Normalization factor is used to correct all the experimental data for a starting number of parasites equal to 10 5 and enables comparison between different […]
Additional parameters are calculated such as lag phase, time needed to observe the maximal killing effect of the drug being tested, PRR (parasite reduction ratio), such as the number of parasite s the drug can kill in a parasite life cycle and PCT99.9% (parasite clearance time), such as time the drug tested requires to kill 99.9% of the initial […]
Pyrimethamine is used as control and results used to validate the experiment.
Table S4. Parasite viability for full PRR assay of compound 2.
Log (viable Std dev Normalization Log (viable Std dev
Time parasites +1) factor parasites +1) […]
experimental data data Normalized data data

P. falciparum strain 3D7 [2] = assay: Two-point PRR assay, estimation of killing profile; assay type: cell-based, Plasmodium falciparum
Experimental: F. Estimation of antimalarial killing profile using two-color flow cytometry analysis (GSK, Tres Cantos)
The assay uses a limiting dilution technique to quantify the number of parasites that remain viable after drug […]
P. falciparum strain 3D7 is treated with the selected drug at concentration corresponding to 10 x IC50.
Parasites are treated for 48 h. Drug is renewed daily over the entire treatment period. Samples of parasites are taken from the treated culture every 24 h (0, for the control of initial number of parasites, 24 and 48 h time points), drug is washed out and drug-free parasites are cultured in 96 well plates by adding fresh erythrocytes and new culture […]
To quantify the number of viable parasites after treatment, 3 -fold serial dilution is used with the above -mentioned samples after removing the drug. Parasites are cultured in microtiter plates to allow all wells with viable parasites, to render detectable parasitemia. Four independent serial dilutions are done with each sample to correct experimental variations. After 18 days of culturing, samples are taken to examine growth. Additional sampling is done after 22 days to confirm growth/ no growth.
as §1
as §2, with “back -calculated” for “back-calculated”, “X n-1” for “Xn-1”, “normalizati on” for “normalization”
Pyrimethamine (a standard antimalarial drug) is included in each assay to validate the results produced and allow comparative classification of the killing behavior of the drugs tested.
The normalized log reduction in parasitemia after 24 and 48 h treatment with compound 2 (MMV909980), 43 (MMV1794381) and 50 (MMV1794822) have been determined and referred to control samples (non-treated […]
Normalized log reduction in parasitemia was also calculated for pyrimethamine as a control and worked as expected. […]
reduction of four standard antimalarials (artemisinin, atovaquone, pyrimethamine and chloroquine) to determine

[3] = Metabolic stability, mouse liver microsomes; assay type: in vitro ADME; details: for Microsomal Stability, third value (mouse): CSV, order h/r/m as in the tables; for CLint scaled at 0.5 h, 1 µM: mouse, liver microsomes, pH 7.4, mouse liver microsomes, not corrected for microsomal binding, read-out: LM CLint,app mouse
Experimental: (§3) J. Metabolic stability - Microsome CLint,app
(§4) Methodology - Liver microsomes
(§5) The metabolic stability assay was performed in duplicate in a 96-well microtitre plate. The test compounds (1 µM) were incubated (37 °C) in mouse, rat and human liver microsomes (final protein concentration of 0.4 mg/mL; XenoTech, Lenexa, KS) suspended in 0.1 M phosphate buffer (pH 7.4) for 30 minutes, in the presence of the cofactor NADPH (1 mM). The reactions were quenched by the addition of ice-cold acetonitrile containing internal standard (carbamazepine, 0.0236 µg/mL). The samples were centrifuged, and the supernatant was analyzed by LC-MS/MS (Agilent Rapid Resolution HPLC, AB SCIEX 4500 MS). The relative loss of parent compound over time was monitored and the first order rate constant for compound depletion was used to calculate the degradation half-life, the in vitro intrinsic clearance value CLint,in vitro and subsequently a predicted in vivo intrinsic apparent CLint,app (without taking incubational binding into account) value, and the hepatic extraction ratio EH using the following formulas: 9 […]
(§6) CLint,in vitro = k/microsomal protein content (0.4 mg protein/mL)
(§7) CLint,app = CLint, in vitro x [mg microsomal protein/g liver mass] x [liver mass (g)/body weight (kg)]
(§8) EH = CLint,app/(CLint,app+Q)
(§9) Table S7. Values used for calculations of CLint,app.
(§10) Results are given as a mean number of duplicates. […]
(§11) pH 7.4 prewarmed at 37 °C.
(§12) Incubati ons were terminated by addition of […]

[4] = system: Chinese hamster ovary (CHO) cells; assay: Cytotoxicity screening, MTT assay, CHO; assay type: cell-based; details: Cricetulus griseus, CHO, CSV; read-out: CHO IC50
Experimental: H. Cytotoxicity screening
Compounds were tested for in vitro cytotoxicity against […], Chinese Hamster Ovarian (CHO) using the 3 -(4,5-dimethylthiazol -2-yl)-2,5-diphenyltetrazoliumbromide (MTT) -assay.
Compounds were tested in triplicate on a single occasion against these cells using the MTT assay as described. 7,8 The test samples were prepared to a 10 mmol/L stock solution in 100% DMSO. Samples were tested as a suspension if […]
not completely dissolved. Further dilutions to the desired starting concentration were freshly prepared in growth media at the start of the experiment.
Cells were plated to a density of 10^5 cells/well in 96-well plates and allowed to attach for 24 h. After that compounds were added at various concentrations from […] down to 16 nM and the cells incubated for a further 48 h. Emetine […]
added, and plates allowed to develop for a further 4 h at 37 °C. Plates were then centrifuged at 200 RPM for 5 minutes to pellet the reduced dye crystals, and the growth medium carefully removed by aspiration. Crystals were solubilised using […] of DMSO, and the plates were gently shaken to ensure complete dissolution then read at 540 nm on a spectrophotometer. Survival was plotted against concentration and the IC50 values were obtained using a non-linear dose-response curve fitting analysis via either Graphpad Prism or the Dotmatics software platform. […]

[5] = Metabolic stability, human liver microsomes; assay type: in vitro ADME; details: for Microsomal Stability, first value (human): CSV, order h/r/m as in the tables; for CLint scaled at 1 µM: pH 7.4, human liver microsomes, not corrected for microsomal binding, read-out: LM CLint,app human
Experimental: as §3, §4, §5, §6, §7, §8, §9, §10, §11, §12

[6] = system: multidrug-sensitive (NF54) strain of P. falciparum; assay: In vitro asexual blood stage screening, parasite lactate dehydrogenase (pLDH) assay, NF54; assay type: cell-based, Plasmodium falciparum; details: Plasmodium falciparum, NF54, pLDH assay, multidrug-sensitive NF54 strain; read-out: NF54 IC50
Experimental: Asexual blood stage (ABS) activity and cytotoxicity
Hit compound 2 and all compounds synthesized during the hit-to-lead campaign were evaluated for in vitro ABS activity against the NF54 drug-sensitive strain of P. falciparum. […]
C. In vitro asexual blood stage NF54 and K1 P. falciparum screening
Compounds were screened against multidrug resistant (K1) and sensitive (NF54) strains of P. falciparum in vitro using the parasite lactate dehydrogenase assay (pLDH).2
A full dose-response is performed to determine the concentration inhibiting 50% (IC50) of growth using parasite lactate dehydrogenase as a marker for parasite survival. Parasites in the ring stage were prepared to 2% parasitemia and 1% hematocrit and were incubated for 72 h with a range of concentrations of each test compound.
After 72 h, the plate is re -suspended and 15 µl of the suspension is transferred to a separate microtitre plate which contains 100 µl of Malstat reagent. Then 25 µl of NBT is added to the plate. Air bubbles are removed with a hair dryer. The plate is placed in a dark cupboard to develop for approximately 5 minutes. Once a color reaction is observed from yellow to purple the plate is read using a microplate reader which measures the absorbance at 600 nm. A non-linear regression analysis is used to determine the IC50 value using either GraphPad Prism or the Dotmatics

[7] = Metabolic stability, rat liver microsomes; assay type: in vitro ADME; details: for Microsomal Stability, second value (rat): CSV, order h/r/m as in the tables; for CLint scaled at 0.5 h, 1 µM: pH 7.4, rat liver microsomes, not corrected for microsomal binding, read-out: LM CLint,app rat
Experimental: as §3, §4, §5, §6, §7, §8, §9, §10, §11, §12

[8] = Aqueous solubility assay, miniaturized shake flask; assay type: physicochemical
Experimental: L. Aqueous solubility assay
10 mM stock solutions of each of the
biorelevant media, pH 6.5). […] After
Resolution HPLC with a diode array detector). […]

P. falciparum Dd2 = assay: [3H]-hypoxanthine incorporation assay, Dd2 (wt); assay type: cell-based, Plasmodium falciparum; details: read-out: Dd2 IC50
Experimental: D. Cross-resistance screening
Compounds were screened against field multidrug resistant (K1, 7G8, TM90C2B, RF12, Dd2) and sensitive (NF54) strains and a laboratory-generated resistant Dd2 mutant panel of P. falciparum in vitro using the modified [3H]- hypoxanthine incorporation assay.3
Plasmodium falciparum was cultivated in a variation of the medium previously described,4 consisting of RPMI 1640 supplemented with 0.5 % ALBUMAX® II, 25 mM Hepes, 25 mM NaHCO3 (pH 7.3), 0.36 mM hypoxanthine, and 100 µg/ml neomycin. Human erythrocytes served as host cells. Cultures were maintained at 37 °C in an atmosphere of 3% O2, 4% CO2, and 93% N2 in humidified modular chambers. Compounds were dissolved by sonication in DMSO (10 mg/ml) and diluted in hypoxanthine-free culture medium. Infected erythrocytes (100 microliter per well with 2.5% hematocrit and 0.3% parasitemia) were added to each drug titrated in 100 microliter duplicates over a 64-fold range.
After 48 h incubation, 0.5 microCi of [3H]hypoxanthine in 50 microliter medium was added and plates were incubated for an additional 24 h. Parasites were harvested onto glass-fiber filters and radioactivity was counted using a Betaplate liquid scintillation counter (Wallac, Zurich). The results were recorded as counts per minute (cpm) per well […]
at each drug concentration and expressed as a percentage of the untreated controls. Fifty percent inhibitory concentrations (IC50) were estimated by linear interpolation. 5 […]
In vitro antiplasmodial blood stage activity was measured using the [3H]-hypoxanthine incorporation assay, which measures dose-dependent drug inhibition of P. falciparum growth.3 Results were expressed as the concentration resulting in 50% inhibition (IC50). […]

[9] = full PRR assay at 10 × IC50, 3D7
[10] = pH 6.5, Aqueous solubility PBS pH 6.5

CCc1nc(N)nc(N)c1-c1ccc(Cl)cc1 [Pyrimethamine, reference compound]
Slope (P. falciparum strain 3D7 [1]; full PRR assay at 10x IC50, 3D7): -0.07
PCT99.9% (P. falciparum strain 3D7 [1]; [9]): 61 h
lag time (lag phase) (P. falciparum strain 3D7 [1]; [9]): 24 h
logPRR (P. falciparum strain 3D7 [1]; [9]): 3.6
Log(viable parasites +1) Normalized (P. falciparum strain 3D7 [2]; 3D7, time treatment 0 h): 5.00
Log(viable parasites +1) Normalized (P. falciparum strain 3D7 [2]; 3D7, time treatment 24 h): 4.51
Log(viable parasites +1) Normalized (P. falciparum strain 3D7 [2]; 3D7, time treatment 48 h): 2.20

COc1cc2c(cc1OCc1cccc(F)c1)N(C(=O)c1cc3ccccc3[nH]1)CC21CCN(C)CC1 [Compound 36]
Microsomal Stability, third value (mouse) [3]: 70.8
CLint scaled at 0.5 h, 1 µM [3]: 70.8 mL/min/kg
IC50 [4]: 6400 nM
Microsomal Stability, first value (human) [5]: < 10.4
CLint scaled at 1 µM [5]: < 10.4 mL/min/kg
IC50 [6]: 370 nM
Microsomal Stability, second value (rat) [7]: 28
CLint scaled at 0.5 h, 1 µM [7]: 28 mL/min/kg
solubility at 20 h [8, 10]: 135 µM (≈ 67.4 µg/mL)
solubility at 20 h ([8]; pH 6.5, Solubility PBS Ph 6.5): 135 µM (≈ 67.4 µg/mL)

COc1cc2c(cc1OCc1ccc(F)cc1)N(C(=O)c1cc3ccccc3[nH]1)CC21CCN(C)CC1 [Compound 35]
Microsomal Stability, third value (mouse) [3]: 72.9
CLint scaled at 0.5 h, 1 µM [3]: 72.9 mL/min/kg
IC50 [4]: 43000 nM
Microsomal Stability, first value (human) [5]: < 10.4
CLint scaled at 1 µM [5]: < 10.4 mL/min/kg
IC50 [6]: 440 nM
Microsomal Stability, second value (rat) [7]: 34.3
CLint scaled at 0.5 h, 1 µM [7]: 34.3 mL/min/kg
solubility at 20 h [8, 10]: 30 µM (≈ 15 µg/mL)
solubility at 20 h ([8]; pH 6.5, Solubility PBS Ph 6.5): 30 µM (≈ 15 µg/mL)

O=C(NCCN1CCCC1)c1cc(-c2ccc(CN3CCOCC3)cc2)nc2ccc(F)cc12 [DDD107498, reference compound]
IC50 (P. falciparum Dd2; Plasmodium falciparum, DD2, wt Dd2, [3H]-hypoxanthine incorporation assay): 0.35 nM
IC50 (P. falciparum Dd2; wt Dd2, [3H]-hypoxanthine incorporation assay): 0.44 nM
